Data taken from PubChem BioAssay AID608 (Sanford-Burnham Center for Chemical Genomics, 2007).
Calls of active or inactive are those of the source. How the calls were made is not given here.

Molecular target: Peptidyl-prolyl cis-trans isomerase FKBP1A (Homo sapiens) (UniProt P62942)
Assay: small-molecule binding to FKBP12 – biophysical, NMR detection (AID 608)
Conditions: purified FKBP12

Peptidyl-prolyl cis-trans isomerase FKBP1A (Homo sapiens), sequence (P62942 whole entry, looked up): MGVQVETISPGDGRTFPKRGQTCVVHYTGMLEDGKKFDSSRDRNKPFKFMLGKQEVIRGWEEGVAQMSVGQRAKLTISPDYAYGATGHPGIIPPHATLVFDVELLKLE

| Compound | Kd |
| --- | --- |
| Cc1occc1C(=O)NCc1ccncc1 | > 4 mM (inactive) |
| O=C(O)CCC1NCC2CC1CN1CCCCC21 (configuration not stated) | > 4 mM (inactive) |
| O=C(CSc1ncn[nH]1)c1ccc2c(c1)OCCO2 | > 4 mM (inactive) |
| Cc1cc(=O)c2ccccc2n1CC(N)=O | > 4 mM (inactive) |
| Oc1ccc2nonc2c1 | > 4 mM (inactive) |
| O=c1cnnc(NCc2ccc(F)cc2)[nH]1 | > 4 mM (inactive) |
| C=CCCCCCCCCCCCC(O)CC(O)COC(C)=O (configuration not stated) (tested in a mixture with another compound) | > 4 mM (inactive) |
| CC(C)(C)P(=O)(O)c1ccccc1 | > 4 mM (inactive) |
| CC(=O)Nc1nc2c(s1)C(=O)NCCC2 | > 4 mM (inactive) |
| NS(=O)(=O)c1ccccc1Cl | > 4 mM (inactive) |
| CC(=O)Nc1cc(O)cc(O)c1 | > 4 mM (inactive) |
| Cc1cc(NC(=O)NCCCSc2nncn2C)no1 | > 4 mM (inactive) |
| Nc1ccc(-n2cncn2)cc1 | > 4 mM (inactive) |
| Cn1cccc1C=C1C(=O)NC(=S)NC1=O | > 4 mM (inactive) |
| CN(C)c1ccc2c(=O)[nH][nH]c(=O)c2c1 | > 4 mM (inactive) |
| CN(C)Cc1nc2c([nH]1)c(=O)[nH]c(=O)n2C | > 4 mM (inactive) |
| O=C(Nc1cnccn1)c1cccnc1 | > 4 mM (inactive) |
| CC1(C)C2CC[C@]3(C)C(C(=O)C=C4[C@H]5C[C@@](C)(C(=O)O)CC[C@]5(C)CC[C@]43C)[C@@]2(C)CC[C@@H]1O (some centres not stated) | > 4 mM (inactive) |
| COc1ccc(-c2cc(=O)c3ccccc3o2)cc1 | > 4 mM (inactive) |
| CN1CCN(C(=O)C2CCCNC2)CC1 (configuration not stated) | > 4 mM (inactive) |
| Cc1cc(NC(=O)c2ccccc2C(=O)O)no1 | > 4 mM (inactive) |
| Cc1ccccc1NC(=O)/C=C\C(N)=O | > 4 mM (inactive) |
| CC(C)=CCc1c2c(c3occ(-c4ccc(O)cc4)c(=O)c3c1O)C=CC(C)(C)O2 | > 4 mM (inactive) |
| O=C(CSc1ccccc1)N1CCOCC1 | 0.0235 mM |

| Compound | Kd |
| --- | --- |
| COc1ccc(-c2oc3ccccc3c(=O)c2O)cc1OC | > 4 mM (inactive) |
| CCCN1CCC(N2CCC(O)CC2)CC1 | > 4 mM (inactive) |
| O=C(CC1SC(=O)NC1=O)Nc1ccccc1 (configuration not stated) | > 4 mM (inactive) |
| O=c1cnnc(SCCc2ccccc2)[nH]1 | > 4 mM (inactive) |
| Cc1nnc(C)n1/N=C/c1cccs1 | > 4 mM (inactive) |
| O=C(Nc1ncccn1)c1cccc(F)c1 | > 4 mM (inactive) |
| Cc1ccc(Cl)cc1NS(=O)(=O)N1CCCCC1 | inactive |
| CC(=O)Nc1ccc(S(=O)(=O)NC2=NCCS2)cc1 | > 4 mM (inactive) |
| O=c1[nH]c(O)c(C=NC2CC2)c(=O)[nH]1 | > 4 mM (inactive) |
| C=CCc1ccc2c(c1)OCO2 | > 4 mM (inactive) |
| c1cc(C(N2CCOCC2)N2CCOCC2)ccn1 | > 4 mM (inactive) |
| CC(=O)c1cccc(NS(=O)(=O)N2CCOCC2)c1 | inactive |
| Cc1nnc(SCC(=O)Nc2ccccc2)[nH]c1=O | > 4 mM (inactive) |
| O=C1C2CC=CCC2C(=O)N1c1ccccc1 (configuration not stated) | 0.0261 mM |
| CC(=O)Nc1sccc1C(N)=O | > 4 mM (inactive) |
| O=C(Nc1cccc2cccnc12)c1cccnc1 | > 4 mM (inactive) |
| Nc1nnc(C(F)(F)F)s1 | > 4 mM (inactive) |
| O=C1CN(C(=O)c2ccccc2)c2ccccc2N1 | > 4 mM (inactive) |
| CCC1=Nc2ccccc2-c2nnc(SC)nc2O1 | > 4 mM (inactive) |
| NCCCCNCCCN | > 4 mM (inactive) |
| CC1Cc2nc(SCC(N)=O)n(C)c(=O)c2S1 (configuration not stated) | > 4 mM (inactive) |
| COC(=O)c1cccc(N)c1 | > 4 mM (inactive) |
| O=C(O)c1coc2c1C(=O)CCC2 | > 4 mM (inactive) |
| O=C(Nc1nccs1)c1ccc(=O)[nH]n1 | > 4 mM (inactive) |

| Compound | Kd |
| --- | --- |
| Cn1nnc2c(N3CCC(C(N)=O)CC3)ncnc21 | > 4 mM (inactive) |
| NNC(=O)c1ccccc1-n1cccc1 | > 4 mM (inactive) |
| C[n+]1cccc(C(=O)[O-])c1 | > 4 mM (inactive) |
| Cc1ccc(/C=C/C(=O)O)cc1S(=O)(=O)NCCO | > 4 mM (inactive) |
| COc1cccc2c1CCC1=CC(=O)CC[C@@]12C | > 4 mM (inactive) |
| NC(=O)c1ccc2c(c1)OCO2 | > 4 mM (inactive) |
| O=S(=O)(N1CCOCC1)n1c(Cc2ccccc2)nc2ccccc21 | inactive |
| Cc1ccccc1CSc1nncn1N | > 4 mM (inactive) |
| NC(=O)CSc1nc2ncnc(N)c2[nH]1 | > 4 mM (inactive) |
| c1cncc(-c2nnc(-c3cccnc3)nn2)c1 | > 4 mM (inactive) |
| O=C(CN1C(=O)c2cccc3cccc(c23)C1=O)NO | > 4 mM (inactive) |
| Nc1cccc(OC(F)(F)F)c1 | > 4 mM (inactive) |
| CC(=O)N1CCc2cc(NC(=O)c3ccc(C)cc3)ccc21 | > 4 mM (inactive) |
| Cc1ccc(C(=O)NCCO)c(Cl)c1 | > 4 mM (inactive) |
| O=C(O)C1COc2ccccc2C1 (configuration not stated) | > 4 mM (inactive) |
| Nc1nc2c3ccccc3nc(Cc3ccccc3)n2n1 | > 4 mM (inactive) |
| COn1c(=O)c(-c2ccco2)[n+]([O-])c2ccccc21 | > 4 mM (inactive) |
| O=C(O)C1Cc2ccccc2N1 (configuration not stated) | > 4 mM (inactive) |
| CN1C(=O)c2ccc(N3CCCC3)cc2C1=O | > 4 mM (inactive) |
| COc1ccc(-c2cc(=O)c3c(O)cc(O)c(-c4cc(-c5cc(=O)c6c(O)cc(O)cc6o5)ccc4OC)c3o2)cc1 | > 4 mM (inactive) |
| N#Cc1cnn(Cc2ccc(Cl)cc2)c1N | > 4 mM (inactive) |
| COc1ccccc1NC(=O)C1CCC(=O)N1 (configuration not stated) | > 4 mM (inactive) |
| N#CC(O[C@@H]1O[C@H](CO[C@@H]2O[C@H](CO)[C@@H](O)[C@H](O)[C@H]2O)[C@@H](O)[C@H](O)[C@H]1O)c1ccccc1 (some centres not stated) | > 4 mM (inactive) |
| COc1ccccc1NC(=O)NC(N)=O | > 4 mM (inactive) |

| Compound | Kd |
| --- | --- |
| CC(=O)OC1CCC23CC1(C)CCC2C(C)(C)CC3OC(C)=O (configuration not stated) | > 4 mM (inactive) |
| Cc1ccc(SC(C)c2nc(-c3ccncc3)no2)cc1 (configuration not stated) | inactive |
| Cc1cc(=O)[nH]c(N2CCCCC2)n1 | > 4 mM (inactive) |
| COc1cc([C@@H]2c3cc4c(cc3[C@H](O)[C@H]3COC(=O)[C@H]23)OCO4)cc(OC)c1OC | > 4 mM (inactive) |
| OC/C=C/c1ccc(O)c(O)c1 | > 4 mM (inactive) |
| CC(C)NS(=O)(=O)c1ccc(OCC(=O)N2CCOCC2)cc1 | inactive |
| CN(C)c1nc(N2CCOCC2)nc(N2CCOCC2)n1 | > 4 mM (inactive) |
| COc1ccc([C@@H]2CC(=O)c3c(O)cc(O[C@@H]4O[C@H](CO[C@H]5O[C@@H](C)[C@H](O)[C@@H](O)[C@H]5O)[C@@H](O)[C@H](O)[C@H]4O)cc3O2)cc1O | > 4 mM (inactive) |
| NCc1csc(-c2cccs2)n1 | > 4 mM (inactive) |
| Cn1c(CNc2ccccc2)cc(=O)n(C)c1=O | > 4 mM (inactive) |
| O=C(O)C1CNc2ccccc2O1 (configuration not stated) | > 4 mM (inactive) |
| O=C1NC(=S)NC(=O)C1=Cc1cccs1 | > 4 mM (inactive) |
| Cc1onc(-c2ccccc2)c1C(=O)O | > 4 mM (inactive) |
| Cc1cc(=O)n2[nH]c(C)cc2n1 | > 4 mM (inactive) |
| COc1ccc2c(c1O)-c1c(OC)c(OC)cc3c1[C@H](C2)N(C)CC3 | > 4 mM (inactive) |
| CC(=O)c1ccc(-n2ccnc2)cc1 | > 4 mM (inactive) |
| O=C(/C=C1\SC(=O)NC1=O)NCc1ccccc1 | > 4 mM (inactive) |
| Cn1c(SCc2ccon2)nc2ccccc2c1=O | > 4 mM (inactive) |
| N#Cc1c[nH]n2c(=O)cc(Cc3ccccc3)nc12 | > 4 mM (inactive) |
| NC(=O)c1cc2c(n(-c3ccccc3)c1=O)CCCC2=O | > 4 mM (inactive) |
| O=C(Nc1ccc(OCC(=O)N2CCOCC2)cc1)c1ccccc1F | inactive |
| COc1ccc2c(c1)OCc1c-2oc2cc(OC)ccc12 | > 4 mM (inactive) |
| O=C1c2ccncc2C(=O)N1CO | > 4 mM (inactive) |
| O=C(Cn1c(-c2cscn2)nc2ccccc21)Nc1ccc(Oc2ccc(F)cc2)cc1 | > 4 mM (inactive) |

| Compound | Kd |
| --- | --- |
| CCN1CCN(CCCNc2ncnc3nc[nH]c23)CC1 | > 4 mM (inactive) |
| C[C@@H]1CC[C@]2(C(=O)O)CC[C@]3(C)C(=CCC4[C@@]5(C)CC[C@H](O)C(C)(C)C5CC[C@]43C)C2[C@H]1C (some centres not stated) | > 4 mM (inactive) |
| O=c1[nH]cc(NCc2ccccc2)c(=O)[nH]1 | > 4 mM (inactive) |
| CN1CCN(C(=O)c2cc(-c3ccccc3)on2)CC1 | > 4 mM (inactive) |
| CCOC(=O)c1ccc(Oc2ccc(C)nn2)cc1 | > 4 mM (inactive) |
| CN1C(=O)c2ccc(C(=O)NCc3ccccc3)cc2C1=O | > 4 mM (inactive) |
| Cc1cc(S(=O)(=O)N2CCCC2)ccc1OCC(=O)N1CCOCC1 | inactive |
| N#C/C(=C\c1ccc[nH]1)S(=O)(=O)c1ccccc1 | > 4 mM (inactive) |
| O=C(CC1NCCNC1=O)Nc1ccccc1 (configuration not stated) | > 4 mM (inactive) |
| Cc1nn(-c2ccccc2)nc1C(N)=O | > 4 mM (inactive) |
| Cc1noc(C)c1C(=O)Nc1sc(C)c(C)c1C#N | > 4 mM (inactive) |
| Cc1cc(O)cc(=O)n1CCCC(=O)O | > 4 mM (inactive) |
| O=c1[nH]c2sc3c(c2c2ncnn12)CCCC3 | > 4 mM (inactive) |
| COC(=O)c1ccc(NC(=O)CC2NCCNC2=O)cc1 (configuration not stated) | > 4 mM (inactive) |
| CC1=C(/C=C/C(C)=C/C=C/C(C)=C/CO)C(C)(C)CCC1 | > 4 mM (inactive) |
| COc1ccc(C2CC(=O)c3ccc(OC)cc3O2)cc1 (configuration not stated) | > 4 mM (inactive) |
| CC1(C)C2C[C@@H](O)[C@]3(C)C(CC[C@@]4(C)[C@H](c5ccoc5)OC(=O)[C@H]5O[C@]543)[C@@]2(C)[C@@H](O)C[C@H]1O (some centres not stated) | > 4 mM (inactive) |
| COC1C=CC23c4cc5c(cc4CN(CC2O)[C@@H]3C1)OCO5 (some centres not stated) | > 4 mM (inactive) |
| CCN1CC2(C)CC[C@H](OC)[C@]34C2[C@H](O)C2(OCO[C@@]25C[C@H](OC)[C@H]2C[C@]3(O)C5[C@H]2O)C14 | > 4 mM (inactive) |
| c1ccc(Cc2nnc3sc(-c4ccncc4)nn23)cc1 | > 4 mM (inactive) |
| COc1cc(O)ccc1C(C)=O | > 4 mM (inactive) |
